# Reference: ChEMBL document CHEMBL3885861, “Open TG-GATES”
# Species: Rattus norvegicus
# Assay: Open TG-GATES - Regimen: Single
# Format: toxicity, organism-based, Sprague-Dawley
# Set-up: regimen Single, gender Male, age 6 weeks
# Settings: in vivo, po, route gavage; for Eos / Fbg / Hb / Ht / Lym / MCH / MCHC / MCV / Mono / Neu / PT / Plat / RBC / Ret / APTT / Bas / WBC: tissue Blood; for KIDNEY_L / KIDNEY_R / KIDNEY_TOTAL: tissue Kidney; for LIVER: tissue Liver; for ALP / ALT / AST / BUN / CRE / Ca / DBIL / GLC / IP / K / LDH / Na / PL / RALB / TBIL / TC / TG / TP / gamma-GTP: tissue Plasma
# [1] = 50 mg/kg, 3 h, dose level Middle
# [2] = 50 mg/kg, 6 h, dose level Middle
# [3] = 50 mg/kg, 9 h, dose level Middle
# [4] = 50 mg/kg, 24 h, dose level Middle
smiles,measurement,setting,value
Oc1ncnc2[nH]ncc12 [ALLOPURINOL],Eos,[1],0.8%
same,Fbg,[1],209.6 mg/dL
same,Hb,[1],14 g/dL
same,Ht,[1],41.6%
same,Lym,[1],80%
same,MCH,[1],21.9 pg
same,MCHC,[1],33.7%
same,MCV,[1],64.9 fL
same,Mono,[1],8.2%
same,Neu,[1],11.2%
same,PT,[1],12.2 s
same,Plat,[1],109.1 x10_4/uL
same,RBC,[1],640.4 x10_4/ul
same,Ret,[1],7.8%
same,KIDNEY_L,[1],1 g
same,KIDNEY_R,[1],1.1 g
same,KIDNEY_TOTAL,[1],2.1 g
same,LIVER,[1],9.9 g
same,ALP,[1],877.8 IU/L
same,ALT,[1],30.4 IU/L
same,AST,[1],62.8 IU/L
same,BUN,[1],15.6 mg/dL
same,CRE,[1],0.6 mg/dL
same,Ca,[1],11.2 mg/dL
same,DBIL,[1],0.1 mg/dL
same,GLC,[1],195.4 mg/dL
same,IP,[1],9.9 mg/dL
same,K,[1],4.6 meq/L
same,LDH,[1],90.6 IU/L
same,Na,[1],140 meq/L
same,PL,[1],136.2 mg/dL
same,RALB,[1],3.8 g/dL
same,TBIL,[1],0.4 mg/dL
same,TC,[1],80.4 mg/dL
same,TG,[1],36.6 mg/dL
same,TP,[1],5.6 g/dL
same,gamma-GTP,[1],1 IU/L
same,TERMINAL_BW,[2],208.2 g
same,APTT,[2],16.7 s
same,Bas,[2],0%
same,Eos,[2],0.8%
same,Fbg,[2],218.8 mg/dL
same,Hb,[2],13.6 g/dL
same,Ht,[2],40.6%
same,Lym,[2],69%
same,MCH,[2],21.4 pg
same,MCHC,[2],33.5%
same,MCV,[2],64 fL
same,Mono,[2],9.2%
same,Neu,[2],21.2%
same,PT,[2],12.3 s
same,Plat,[2],98.1 x10_4/uL
same,RBC,[2],634 x10_4/ul
same,Ret,[2],8.1%
same,WBC,[2],122.8 x10_2/uL
same,KIDNEY_L,[2],1.1 g
same,KIDNEY_R,[2],1.2 g
same,KIDNEY_TOTAL,[2],2.2 g
same,LIVER,[2],9.5 g
same,ALP,[2],927.4 IU/L
same,ALT,[2],29.6 IU/L
same,AST,[2],63.6 IU/L
same,BUN,[2],15 mg/dL
same,CRE,[2],0.5 mg/dL
same,Ca,[2],11.6 mg/dL
same,DBIL,[2],0.014 mg/dL
same,GLC,[2],185 mg/dL
same,K,[2],4.8 meq/L
same,LDH,[2],81.2 IU/L
same,Na,[2],140 meq/L
same,PL,[2],130.6 mg/dL
same,RALB,[2],3.7 g/dL
same,TBIL,[2],0.4 mg/dL
same,TC,[2],72.4 mg/dL
same,TG,[2],58.8 mg/dL
same,TP,[2],5.5 g/dL
same,gamma-GTP,[2],1 IU/L
same,TERMINAL_BW,[3],207.1 g
same,APTT,[3],16.8 s
same,Bas,[3],0%
same,Eos,[3],1.2%
same,Fbg,[3],222.6 mg/dL
same,Hb,[3],13.7 g/dL
same,Ht,[3],40.9%
same,Lym,[3],67.2%
same,MCH,[3],22 pg
same,MCHC,[3],33.5%
same,MCV,[3],65.9 fL
same,Mono,[3],4.6%
same,Neu,[3],27.4%
same,PT,[3],12.5 s
same,Plat,[3],108.6 x10_4/uL
same,RBC,[3],622 x10_4/ul
same,Ret,[3],8.9%
same,WBC,[3],86.1 x10_2/uL
same,KIDNEY_L,[3],1 g
same,KIDNEY_R,[3],1 g
same,KIDNEY_TOTAL,[3],2 g
same,LIVER,[3],8.8 g
same,ALP,[3],846.2 IU/L
same,ALT,[3],29.4 IU/L
same,AST,[3],60.2 IU/L
same,BUN,[3],12.2 mg/dL
same,CRE,[3],0.4 mg/dL
same,DBIL,[3],0.044 mg/dL
same,GLC,[3],178.4 mg/dL
same,IP,[3],10.9 mg/dL
same,K,[3],4.6 meq/L
same,LDH,[3],80.8 IU/L
same,Na,[3],139.2 meq/L
same,PL,[3],147 mg/dL
same,RALB,[3],3.6 g/dL
same,TBIL,[3],0.4 mg/dL
same,TC,[3],82.8 mg/dL
same,TG,[3],30.2 mg/dL
same,TP,[3],5.5 g/dL
same,gamma-GTP,[3],1.4 IU/L
same,TERMINAL_BW,[4],219.7 g
same,APTT,[4],16.3 s
same,Bas,[4],0%
same,Eos,[4],1.2%
same,Fbg,[4],229.6 mg/dL
same,Hb,[4],13.6 g/dL
same,Ht,[4],40.6%
same,Lym,[4],81.2%
same,MCH,[4],21.2 pg
same,MCHC,[4],33.4%
same,MCV,[4],63.5 fL
same,Mono,[4],4.8%
same,Neu,[4],13.2%
same,PT,[4],12 s
same,Plat,[4],98.8 x10_4/uL
same,RBC,[4],641 x10_4/ul
same,Ret,[4],6.9%
same,WBC,[4],111.4 x10_2/uL
same,KIDNEY_L,[4],1 g
same,KIDNEY_R,[4],1 g
same,KIDNEY_TOTAL,[4],2 g
same,ALP,[4],1004.2 IU/L
same,ALT,[4],32 IU/L
same,AST,[4],63 IU/L
same,BUN,[4],18.6 mg/dL
same,CRE,[4],0.5 mg/dL
same,Ca,[4],11 mg/dL
same,DBIL,[4],0.022 mg/dL
same,GLC,[4],183.4 mg/dL
same,IP,[4],7.9 mg/dL
same,K,[4],4.9 meq/L
same,LDH,[4],88.4 IU/L
same,Na,[4],139.2 meq/L
same,PL,[4],162.4 mg/dL
same,RALB,[4],3.8 g/dL
same,TBIL,[4],0.3 mg/dL
same,TC,[4],81.4 mg/dL
same,TG,[4],120 mg/dL
same,TP,[4],5.8 g/dL
same,gamma-GTP,[4],1.6 IU/L
same,TERMINAL_BW,"150 mg/kg, 3 h, dose level High",210.3 g
